Substitutions are numbered along the chain they refer to. pKd: −log10 of the molar value. Like-named read-outs stand apart in the source and are kept apart here.
Experiments:
[1] = read-out: Zn^2+ complexation KD; ref [52]; cited from earlier work
[2] = tested on: Zn^2+-activated GlyRs (ZAGs); format: cell-based, human
[3] = molecular target: T1, GlyR α1^F108A (Homo sapiens, UniProt P23415, F136A); format: cell-based
T1 sequence (P23415 29-457 F136A): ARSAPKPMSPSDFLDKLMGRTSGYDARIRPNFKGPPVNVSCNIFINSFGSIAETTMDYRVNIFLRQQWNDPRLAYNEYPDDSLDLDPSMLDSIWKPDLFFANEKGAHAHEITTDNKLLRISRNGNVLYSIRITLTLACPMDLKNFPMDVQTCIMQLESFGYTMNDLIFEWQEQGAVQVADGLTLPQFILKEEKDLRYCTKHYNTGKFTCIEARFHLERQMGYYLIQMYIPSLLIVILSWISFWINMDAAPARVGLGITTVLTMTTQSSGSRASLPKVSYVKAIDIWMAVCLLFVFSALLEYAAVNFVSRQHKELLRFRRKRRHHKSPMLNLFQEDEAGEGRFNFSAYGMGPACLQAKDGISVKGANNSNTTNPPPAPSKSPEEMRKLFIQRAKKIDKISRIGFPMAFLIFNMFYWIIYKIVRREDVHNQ

[4] = molecular target: T2, GlyR α1^L98A (Homo sapiens, UniProt P23415, L126A); assay: Whole-cell recording of substituted GlyR in HEK cells; format: cell-based
T2 sequence (P23415 29-457 L126A): T1 sequence (P23415 29-457 F136A) with L98A, A108F

[5] = molecular target: T3, GlyR α1^L134A (Homo sapiens, UniProt P23415, L162A); assay: as above; format: cell-based
T3 sequence (P23415 29-457 L162A): T1 sequence (P23415 29-457 F136A) with A108F, L134A

[6] = molecular target: T4, GlyR α1^F99A (Homo sapiens, UniProt P23415, F127A); assay: as above; format: cell-based
T4 sequence (P23415 29-457 F127A): T1 sequence (P23415 29-457 F136A) with F99A, A108F

O=C(O)CNC(CO)(CO)CO [tricine]
pKd [1]: 5.00

N#C[B-](c1ccccc1)(c1ccccc1)c1ccccc1 [CTB, cyanotriphenylborate]
Standing current remaining after block of spontaneous leak ([2]; CTB 20 μM, considered full abolition of receptor-mediated leak): less than 50 pA | Effect on Zn^2+-activated currents [3]: abolished

c1ccc(CN(CCN(Cc2ccccn2)Cc2ccccn2)Cc2ccccn2)nc1 [TPEN, N,N,N’,N’-tetrakis-(2-pyridylmethyl)-ethylenediamine]
Effect on leak current (component caused by Zn^2+ contamination) ([2]; TPEN 100 μM, α1^L98A, α1^F99A, α1^F108A, α1^L134A): reduced

picrotoxin
Effect on Zn^2+ activation ([4]; picrotoxin, α1^L98A, Zn^2+ EC50-activated currents (Fig. 2f)): inhibited

O=C1C[C@@H]2OCC=C3CN4CC[C@]56c7ccccc7N1[C@H]5[C@H]2[C@H]3C[C@H]46 [strychnine]
Attenuation of leak current [5]: 90 ± 4% | Effect on Zn^2+ activation [4]: inhibited | Attenuation of leak current [6]: 100% | Loss of potency inhibiting leak current compared to glycine-activated currents [2]: 10 fold
